Laboratory results as given in patent US20230085307A1, “PYRIDAZINONE COMPOUND AND HERBICIDE” (NISSAN CHEMICAL CORPORATION, priority 2019, published 2023).

System: Italian ryegrass
Test: Test Example 4: herbicidal effect by soil treatment (Table 19, symbol K)
Assay type: in vivo, Italian ryegrass (Lolium multiflorum)
Conditions: amount of applied herbicide 320 g/ha
Summary of the method: (§1)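 Herbicidal effect was rated 3 weeks after treatment, using the scoring criteria of an earlier test. The compound, formulated as an emulsion and diluted in water to a set herbicide amount, had been sprayed uniformly on soil over freshly sown seeds. Growth took place in a greenhouse at 25° C. to 30° C.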

SMILES	herbicidal effect rating, K: Italian ryegrass
CCCC(=O)Oc1c(C)nn(C)c(=O)c1-c1c(-c2ccc3c(c2)CCO3)sc2ccccc12 [1-102]	3 (Herbicidal rate of 40% or more and less than 70%)
Cc1nn(C)c(=O)c(-c2c(-c3cnc4ccccc4c3)sc3ccccc23)c1O [1-108]	0 (Herbicidal rate of 5% or less (almost no effect))

System: chickweed
Test: Test Example 5: herbicidal effect by foliage application, plastic box (Table 20, symbol P)
Assay type: in vivo, common chickweed (Stellaria media)
Conditions: foliage application, AAH 320 g/ha, three weeks after application
Summary of the method: (§2)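 Foliar spray test: emulsion formulation diluted in water to a set application rate, sprayed onto 14-day-old plants raised in diluvial soil at 25° C to 30° C under glass. Both herbicidal effect and crop effect rated visually three weeks later.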

SMILES	P: chickweed, herbicidal effect
CCCC(=O)Oc1c(C)nn(C)c(=O)c1-c1c(-c2ccc3c(c2)CCO3)sc2ccccc12 [1-102]	5 (Herbicidal rate of 90% or more (almost completely withered))
Cc1nn(C)c(=O)c(-c2c(-c3cnc4ccccc4c3)sc3ccccc23)c1O [1-108]	2 (Herbicidal rate of 20% or more and less than 40%)

System: southern crabgrass
Test: Test Example 5: herbicidal effect by foliage application, plastic box (Table 20, symbol F)
Assay type: in vivo, southern crabgrass (Digitaria ciliaris)
Conditions: foliage application, AAH 320 g/ha, three weeks after application
Summary of the method: as §2

SMILES	F: southern crabgrass, herbicidal effect
CCCC(=O)Oc1c(C)nn(C)c(=O)c1-c1c(-c2ccc3c(c2)CCO3)sc2ccccc12 [1-102]	4 (Herbicidal rate of 70% or more and less than 90%)
Cc1nn(C)c(=O)c(-c2c(-c3cnc4ccccc4c3)sc3ccccc23)c1O [1-108]	0 (Herbicidal rate of 5% or less (almost no effect))

System: redroot pigweed
Test: Test Example 5: herbicidal effect by foliage application, plastic box (Table 20, symbol N)
Assay type: in vivo, redroot pigweed (Amaranthus retroflexus)
Conditions: foliage application, AAH 320 g/ha, three weeks after application
Summary of the method: as §2

SMILES	N: redroot pigweed, herbicidal effect
CCCC(=O)Oc1c(C)nn(C)c(=O)c1-c1c(-c2ccc3c(c2)CCO3)sc2ccccc12 [1-102]	5 (Herbicidal rate of 90% or more (almost completely withered))
Cc1nn(C)c(=O)c(-c2c(-c3cnc4ccccc4c3)sc3ccccc23)c1O [1-108]	0 (Herbicidal rate of 5% or less (almost no effect))

System: Chinese sprangletop
Test: Test Example 3: herbicidal effect by foliage application, Wagner pot (Table 18, symbol D)
Assay type: in vivo, chinese sprangletop (Leptochloa chinensis)
Conditions: 320 g/ha
Summary of the method: (§3)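 Plants were sown in alluvial soil held under 0.1–0.5 cm standing water and grown 14 days in a greenhouse at 25–30 °C. An emulsifiable formulation, water-diluted to the set dose, was then sprayed onto the foliage, and effects were scored three weeks later using previously defined criteria.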

SMILES	herbicidal effect on D (Chinese sprangletop), rating 0-5
CCCC(=O)Oc1c(C)nn(C)c(=O)c1-c1c(-c2ccc3c(c2)CCO3)sc2ccccc12 [1-102]	3 (Herbicidal rate of 40% or more and less than 70%)
Cc1nn(C)c(=O)c(-c2c(-c3cnc4ccccc4c3)sc3ccccc23)c1O [1-108]	3 (Herbicidal rate of 40% or more and less than 70%)

System: wild oat
Test: Test Example 5: herbicidal effect by foliage application, plastic box (Table 20, symbol I)
Assay type: in vivo, wild oat (Avena fatua)
Conditions: foliage application, AAH 320 g/ha, three weeks after application
Summary of the method: as §2

SMILES	I: wild oat, herbicidal effect
CCCC(=O)Oc1c(C)nn(C)c(=O)c1-c1c(-c2ccc3c(c2)CCO3)sc2ccccc12 [1-102]	1 (Herbicidal rate of 5% or more and less than 20%)
Cc1nn(C)c(=O)c(-c2c(-c3cnc4ccccc4c3)sc3ccccc23)c1O [1-108]	0 (Herbicidal rate of 5% or less (almost no effect))

System: barnyard grass
Test: Test Example 5: herbicidal effect by foliage application, plastic box (Table 20, symbol H)
Assay type: in vivo, barnyard grass (Echinochloa crus-galli)
Conditions: foliage application, AAH 320 g/ha, three weeks after application
Summary of the method: as §2

SMILES	H: barnyard grass, herbicidal effect
CCCC(=O)Oc1c(C)nn(C)c(=O)c1-c1c(-c2ccc3c(c2)CCO3)sc2ccccc12 [1-102]	3 (Herbicidal rate of 40% or more and less than 70%)
Cc1nn(C)c(=O)c(-c2c(-c3cnc4ccccc4c3)sc3ccccc23)c1O [1-108]	0 (Herbicidal rate of 5% or less (almost no effect))

System: rice flat sedge
Test: Test Example 3: herbicidal effect by foliage application, Wagner pot (Table 18, symbol E)
Assay type: in vivo, rice flat sedge (Cyperus iria)
Conditions: 320 g/ha
Summary of the method: as §3

SMILES	herbicidal effect on E (rice flat sedge), rating 0-5
CCCC(=O)Oc1c(C)nn(C)c(=O)c1-c1c(-c2ccc3c(c2)CCO3)sc2ccccc12 [1-102]	5 (Herbicidal rate of 90% or more (almost completely withered))
Cc1nn(C)c(=O)c(-c2c(-c3cnc4ccccc4c3)sc3ccccc23)c1O [1-108]	5 (Herbicidal rate of 90% or more (almost completely withered))

System: persian speedwell
Test: Test Example 4: herbicidal effect by soil treatment (Table 19, symbol R)
Assay type: in vivo, Persian speedwell (Veronica persica)
Conditions: amount of applied herbicide 320 g/ha
Summary of the method: as §1

SMILES	herbicidal effect rating, R: persian speedwell
CCCC(=O)Oc1c(C)nn(C)c(=O)c1-c1c(-c2ccc3c(c2)CCO3)sc2ccccc12 [1-102]	5 (Herbicidal rate of 90% or more (almost completely withered))
Cc1nn(C)c(=O)c(-c2c(-c3cnc4ccccc4c3)sc3ccccc23)c1O [1-108]	0 (Herbicidal rate of 5% or less (almost no effect))

System: blackgrass
Test: Test Example 5: herbicidal effect by foliage application, plastic box (Table 20, symbol J)
Assay type: in vivo, blackgrass (Alopecurus myosuroides)
Conditions: foliage application, AAH 320 g/ha, three weeks after application
Summary of the method: as §2

SMILES	J: blackgrass, herbicidal effect
CCCC(=O)Oc1c(C)nn(C)c(=O)c1-c1c(-c2ccc3c(c2)CCO3)sc2ccccc12 [1-102]	0 (Herbicidal rate of 5% or less (almost no effect))
Cc1nn(C)c(=O)c(-c2c(-c3cnc4ccccc4c3)sc3ccccc23)c1O [1-108]	0 (Herbicidal rate of 5% or less (almost no effect))

System: lambsquarters
Test: Test Example 4: herbicidal effect by soil treatment (Table 19, symbol O)
Assay type: in vivo, lambsquarters (Chenopodium album)
Conditions: amount of applied herbicide 320 g/ha
Summary of the method: as §1

SMILES	herbicidal effect rating, O: lambsquarters
CCCC(=O)Oc1c(C)nn(C)c(=O)c1-c1c(-c2ccc3c(c2)CCO3)sc2ccccc12 [1-102]	4 (Herbicidal rate of 70% or more and less than 90%)
Cc1nn(C)c(=O)c(-c2c(-c3cnc4ccccc4c3)sc3ccccc23)c1O [1-108]	3 (Herbicidal rate of 40% or more and less than 70%)

System: windgrass
Test: Test Example 4: herbicidal effect by soil treatment (Table 19, symbol L)
Assay type: in vivo, windgrass (Apera spica-venti)
Conditions: amount of applied herbicide 320 g/ha
Summary of the method: as §1

SMILES	herbicidal effect rating, L: windgrass
CCCC(=O)Oc1c(C)nn(C)c(=O)c1-c1c(-c2ccc3c(c2)CCO3)sc2ccccc12 [1-102]	0 (Herbicidal rate of 5% or less (almost no effect))
Cc1nn(C)c(=O)c(-c2c(-c3cnc4ccccc4c3)sc3ccccc23)c1O [1-108]	0 (Herbicidal rate of 5% or less (almost no effect))

System: oval-leafed pondweed
Test: Test Example 1: herbicidal activity, application before weed generation under submerged conditions (Table 16, symbol C)
Assay type: in vivo, oval-leafed pondweed (Monochoria vaginalis)
Conditions: 320 g/ha applied herbicide
Summary of the method: (§4)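 Emulsion formulation, water-diluted to set dose, was put onto the flooded surface (4 cm depth, alluvial soil) the same day weeds were sown and 2.5-leaf rice transplanted. After 3 weeks at 25-30 °C under glass, each species was rated 0 (≤5% kill) to 5 (≥90% kill).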

SMILES	Herbicidal effect on C: oval-leafed pondweed (grade 0-5)
CCCC(=O)Oc1c(C)nn(C)c(=O)c1-c1c(-c2ccc3c(c2)CCO3)sc2ccccc12 [1-102]	4 (Herbicidal rate of 70% or more and less than 90%)
Cc1nn(C)c(=O)c(-c2c(-c3cnc4ccccc4c3)sc3ccccc23)c1O [1-108]	0 (Herbicidal rate of 5% or less (almost no effect))

System: chickweed
Test: Test Example 4: herbicidal effect by soil treatment (Table 19, symbol P)
Assay type: in vivo, common chickweed (Stellaria media)
Conditions: amount of applied herbicide 320 g/ha
Summary of the method: as §1

SMILES	herbicidal effect rating, P: chickweed
CCCC(=O)Oc1c(C)nn(C)c(=O)c1-c1c(-c2ccc3c(c2)CCO3)sc2ccccc12 [1-102]	5 (Herbicidal rate of 90% or more (almost completely withered))
Cc1nn(C)c(=O)c(-c2c(-c3cnc4ccccc4c3)sc3ccccc23)c1O [1-108]	0 (Herbicidal rate of 5% or less (almost no effect))

System: barnyard grass
Test: Test Example 3: herbicidal effect by foliage application, Wagner pot (Table 18, symbol H)
Assay type: in vivo, barnyard grass (Echinochloa crus-galli)
Conditions: 320 g/ha
Summary of the method: as §3

SMILES	herbicidal effect on H (barnyard grass), rating 0-5
CCCC(=O)Oc1c(C)nn(C)c(=O)c1-c1c(-c2ccc3c(c2)CCO3)sc2ccccc12 [1-102]	4 (Herbicidal rate of 70% or more and less than 90%)
Cc1nn(C)c(=O)c(-c2c(-c3cnc4ccccc4c3)sc3ccccc23)c1O [1-108]	0 (Herbicidal rate of 5% or less (almost no effect))

System: Japanese bulrush
Test: Test Example 1: herbicidal activity, application before weed generation under submerged conditions (Table 16, symbol B)
Assay type: in vivo, Japanese bulrush (Schoenoplectus juncoides)
Conditions: 320 g/ha applied herbicide
Summary of the method: as §4

SMILES	Herbicidal effect on B: Japanese bulrush (grade 0-5)
CCCC(=O)Oc1c(C)nn(C)c(=O)c1-c1c(-c2ccc3c(c2)CCO3)sc2ccccc12 [1-102]	5 (Herbicidal rate of 90% or more (almost completely withered))
Cc1nn(C)c(=O)c(-c2c(-c3cnc4ccccc4c3)sc3ccccc23)c1O [1-108]	2 (Herbicidal rate of 20% or more and less than 40%)

System: velvetleaf
Test: Test Example 5: herbicidal effect by foliage application, plastic box (Table 20, symbol M)
Assay type: in vivo, velvetleaf (Abutilon theophrasti)
Conditions: foliage application, AAH 320 g/ha, three weeks after application
Summary of the method: as §2

SMILES	M: velvetleaf, herbicidal effect
CCCC(=O)Oc1c(C)nn(C)c(=O)c1-c1c(-c2ccc3c(c2)CCO3)sc2ccccc12 [1-102]	5 (Herbicidal rate of 90% or more (almost completely withered))
Cc1nn(C)c(=O)c(-c2c(-c3cnc4ccccc4c3)sc3ccccc23)c1O [1-108]	1 (Herbicidal rate of 5% or more and less than 20%)

System: windgrass
Test: Test Example 5: herbicidal effect by foliage application, plastic box (Table 20, symbol L)
Assay type: in vivo, windgrass (Apera spica-venti)
Conditions: foliage application, AAH 320 g/ha, three weeks after application
Summary of the method: as §2

SMILES	L: windgrass, herbicidal effect
CCCC(=O)Oc1c(C)nn(C)c(=O)c1-c1c(-c2ccc3c(c2)CCO3)sc2ccccc12 [1-102]	0 (Herbicidal rate of 5% or less (almost no effect))
Cc1nn(C)c(=O)c(-c2c(-c3cnc4ccccc4c3)sc3ccccc23)c1O [1-108]	0 (Herbicidal rate of 5% or less (almost no effect))

System: late watergrass
Test: Test Example 1: herbicidal activity, application before weed generation under submerged conditions (Table 16, symbol A)
Assay type: in vivo, late watergrass (Echinochloa oryzicola)
Conditions: 320 g/ha applied herbicide
Summary of the method: as §4

SMILES	Herbicidal effect on A: late watergrass (grade 0-5)
CCCC(=O)Oc1c(C)nn(C)c(=O)c1-c1c(-c2ccc3c(c2)CCO3)sc2ccccc12 [1-102]	4 (Herbicidal rate of 70% or more and less than 90%)
Cc1nn(C)c(=O)c(-c2c(-c3cnc4ccccc4c3)sc3ccccc23)c1O [1-108]	3 (Herbicidal rate of 40% or more and less than 70%)
